A short description of the data set: Solubility in water (visual, confirmed by HPLC assay of a saturated solution).

Each structure is given as a SMILES string.

A word on the solubility: it is the concentration that dissolves in the medium under given conditions. Higher therefore signals a readily soluble substance.

As for `CN(CCOc1ccc(CC2SC(=O)NC2=O)cc1)c1ccccn1` (centres unmarked) [Benzenesulfonate Form II, 5-[4-[2-(N-Methyl-N-(2-pyridyl)amino)ethoxy]benzyl]thiazolidine-2,4-dione benzenesulfonate Form II], the solubility (water added in aliquots from 1 to 1000ml to approximately 100mg of drug substance, confirmed by HPLC assay of a saturated solution) was found to be 1400 µg/mL.

Molecule `CN(CCOc1ccc(CC2SC(=O)NC2=O)cc1)c1ccccn1` (centres unmarked) [Benzenesulfonate propan-2-ol solvate, 5-[4-[2-(N-Methyl-N-(2-pyridyl)amino)ethoxy]benzyl]thiazolidine-2,4-dione benzenesulfonate propan-2-ol solvate] displayed a solubility (water) of 1600 µg/mL.

Source of the values: patent publication EP1448559B1, “5-(4-(2-(N-METHYL-N-(2-PYRIDYL)AMINO)ETHOXY)BENZYL)THIAZOLIDINE-2,4-DIONE BENZENESULFONATE; PROCESS FOR ITS PREPARATION; POLYMORPHS I, II AND III THEREOF; AND ITS USE AS PHARMACEUTICAL ACTIVE INGREDIENT” (SMITHKLINE BEECHAM PLC, priority 2001, dated 2003).
